{
  "source": "patent US6355616B1",
  "about": "“Derivative compounds derived from or based on bactericidal/permeability-increasing protein” (priority 1999, dated 2002)",
  "key": {"[1]": {"system": "Candida albicans SLU-1", "experiment": "Radial diffusion assay", "assay_type": "cell-based", "conditions": "30 mm^2 area of growth inhibition, calculated by PROBIT analysis", "experimental": "In the radial diffusion assay procedures, the CA-1 cultures and derivatized peptide solutions were prepared as in the broth microdilution assay procedure described above, i.e., CA-1 was grown to exponential phase in SDB. Ten (10) mL of molten underlayer agarose comprising 3% Sabouraud Dextrose broth, 1% agarose (Pharmacia, Piscataway, N.J.), 0.02% Tween 20, and 10 mM sodium phosphate at pH 7.4, was added to polystyrene tubes and maintained in a 56° C. water bath until the addition of yeast. Tubes were cooled to approximately 45° C., yeast were added to give a final concentration of 1×10^6 CFU/mL, and the tubes were mixed again by inverting. The contents were poured into leveled, square petri dishes and distributed evenly. […] A series of wells were punched into the hardened agarose using a sterile 3 mm punch attached to a vacuum apparatus to achieve a uniform, 3 mm diameter well.\nDerivatized peptide sequences to be assayed were 2-fold serially diluted in 10 mM Dulbecco's PBS (D-PBS) starting from a concentration of approximately […]. Five μL of each dilution were added to each well and the plates were incubated at 37° C. for 3 hours to allow for complete diffusion of the test compounds. An overlayer of 10 mL of molten agarose comprising 6% Sabouraud Dextrose broth, 1% agarose, and 10 mM sodium phosphate, pH 7.4, (at approximately 45° C.) was then added and plates were incubated overnight at 37° C. Following this overnight incubation, a dilute Coomassie solution was poured into the plates and allowed to stain for 24 hours to enhance visualization of the zones.\nClear zones of growth inhibition around each well were measured with calipers. The actual area of growth inhibition (mm^2) was calculated by subtracting the area of the well. Table II below sets out the results of the radial diffusion assays for a series of tested peptide-based constructs in terms of the number of picomoles (pmol) of compound required to establish a 30 mm^2 area of growth inhibition of Candida albicans SLU-1 calculated by PROBIT analysis (e.g., calculated from regression of the linear portion of log-concentration dose-response curve, log pmol/well vs. net area of inhibition)."}, "[2]": {"system": "Candida albicans designated CA-1, Strain SLU-1", "assay_type": "cell-based", "conditions": "C. albicans SLU1; 24 hours at 37° C.; OD 595 nm below 0.1", "experimental": "In each broth microdilution assay screening procedure, a colony of Candida albicans designated CA-1, Strain SLU-1 that was received from the laboratories of G. Matuschak and A. Lechner, St. Louis University Hospital, St. Louis, Mo., where the strain was maintained, was inoculated into a tube containing 5 mL Sabouraud Dextrose broth (2% dextrose, 1% neopeptone) and incubated at 37° C. with shaking. The overnight culture was diluted 1:50 into 5 ml of fresh broth and incubated for 3 hours at 37° C. to exponential phase growth. Organisms were pelleted by centrifugation in a Beckman J-6M centrifuge for 5 minutes at 3000 rpm (1500×g) and the pellets were resuspended in 5 mL phosphate buffered saline (PBS) and the optical density (OD) at 570 nm was determined. On the basis of the determination that one OD unit equals 3×10^7 colony forming units/mL (CFU/mL), yeast cells were diluted to 5×10^3 CFU/mL in Sabouraud Dextrose broth (SBD).\nDerivatized peptide sequences based on Domain III of BPI to be screened which were originally constituted in Dulbecco's-PBS, were two-fold serially diluted in SDB starting from a concentration of 128 μg/mL. Equal volumes (100 μL) of yeast suspension as prepared above and derivatized peptide solution were added to wells of a 96-well sterile, flat bottom, non-pyrogenic tissue culture microtiter plate (Costar, Cambridge, Mass.) to reach a final volume of 200 μL/well. The plate was incubated on a shaker at 37° C. for 24 hours. All assays were performed in triplicate. Following the incubation period, plates were read in an ELISA plate reader at 595 nm wavelength to determine the minimum inhibitory concentration (MIC), i.e., the lowest concentration required to reduce the optical density at 595 nm to below 0.1 OD."}, "[3]": {"system": "Candida albicans, SLU-1", "experiment": "28-day comparative survival efficacy study in mice systemically infected with Candida albicans", "assay_type": "in vivo, male DBA/2 mice", "conditions": "mice infected iv with C. albicans SLU-1; two doses less than 5 mg/kg; initial experiments (p>0.5)", "experimental": "Derivatized peptide-based constructs are tested for activity upon oral administration (oral activity) in a 28-day comparative survival efficacy study in mice systemically infected with Candida albicans. Specifically, male DBA/2 mice (Charles River Laboratories) six weeks of age are dosed with 7.9×10^4 Candida albicans, SLU-1 in 100 μL intravenously via the tail vein in a single dosage on day zero (0). However, other routes of administration, including intraperitoneal (ip) and subcutaneous (sc) routes may be administered. Amphotericin B will provide complete protection at 0.5 mg/kg qod (100% survival). Mortality data will be subjected to Kaplan-Meier survival analysis. All treatment groups may be considered statistically significant vs. saline at p values <0.05.\nTreatment begins immediately thereafter with 400 μL oral gavage of either 0.5% dextrose, or derivative compound in 0.5% dextrose at various dosage levels (e.g., 10 mg/kg or 20 mg/kg) according to a prescribed dosing regimen (e.g. every other day for a total of eight times). Amphotericin B (Fungizone®) is administered intravenously at 0.5 mg/kg as a positive control every other day for a total of eight times. Twice-day monitoring (once daily on weekends and holidays) for mortality is performed. The animals treated with antiflngal derivative compound show improvement in mortality compared with the dextrose-treated controls, preferably statistically significant improvement (p-value of […])."}},
  "data": [
    {"smiles": "CC[C@@H](C)[C@@H](NC(=O)[C@@H](CC(C)C)NC(=O)[C@@H](Cc1c[nH]c2ccccc12)NC(=O)[C@@H](CCCCN)NC(=O)c1ccccc1O)C(=O)N[C@H](CCC(N)=O)C(=O)N[C@H](CC(C)C)C(=O)N[C@H](Cc1ccccc1)C(=O)N[C@H](Cc1c[nH]cn1)C(=O)N[C@H](CCCCN)C(=O)N[C@H](CCCCN)C(N)=O", "note": "[XMP.560]", "values": [
      {"measurement": "Radial Diffusion (pmol to achieve 30 mm^2 zone C. albicans SLU1)", "setting": "[1]", "result": 451, "unit": "pmol"},
      {"measurement": "Broth Microdilution (MIC values in μg/mL C. albicans SLU1)", "setting": "[2]", "result": 2, "unit": "µg/mL"},
      {"measurement": "improvement in mortality compared with dextrose-treated controls", "setting": "[3]", "result": "did not exhibit statistically significant improvement"}
    ]}
  ]
}
